Legend:
Experiment in all cases: Uptake transporter inhibition in transfected HEK 293 or MDCK cells
Assay type in all cases: in vitro ADME
OAT1 = target: T1, OAT1 (Homo sapiens, UniProt Q4U2R8); conditions: read-out: as an Inhibitor, IC50
T1 construct: host or cells: MDCK
T1 sequence (Q4U2R8 1-563): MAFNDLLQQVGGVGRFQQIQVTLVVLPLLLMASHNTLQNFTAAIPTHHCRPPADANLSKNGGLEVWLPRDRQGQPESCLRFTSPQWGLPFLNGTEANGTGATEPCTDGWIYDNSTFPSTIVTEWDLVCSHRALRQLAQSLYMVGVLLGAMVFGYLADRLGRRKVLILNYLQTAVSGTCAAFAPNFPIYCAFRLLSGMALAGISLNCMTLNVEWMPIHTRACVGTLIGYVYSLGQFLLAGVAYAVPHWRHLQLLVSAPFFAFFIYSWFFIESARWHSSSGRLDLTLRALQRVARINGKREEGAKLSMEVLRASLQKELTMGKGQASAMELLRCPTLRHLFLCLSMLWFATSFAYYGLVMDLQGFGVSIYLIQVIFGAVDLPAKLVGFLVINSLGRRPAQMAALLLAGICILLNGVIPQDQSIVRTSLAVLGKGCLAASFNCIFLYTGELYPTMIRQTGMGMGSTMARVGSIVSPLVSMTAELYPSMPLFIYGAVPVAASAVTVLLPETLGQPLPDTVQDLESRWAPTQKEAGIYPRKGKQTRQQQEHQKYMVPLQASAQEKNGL
Description: (§1) Cell monolayers were preincubated (37 °C) for 15 to 30 min in a transport medium containing the target concentration of EBO or a specific inhibitor without substrate. Following the removal of preincubation solutions, appropriate working solutions containing EBO at the target concentration plus the probe substrate were added to the wells in triplicate. Separate sets of triplicate wells were designated for probe substrate only and probe substrate plus the specific inhibitors, to determine the maximal uptake rate and maximal inhibition of uptake, respectively. After incubation at 37 °C for each transporter, the working solution was removed from each well and the experiment was stopped by washing three times with cold (4 °C) DPBS. Depending on the substrate label, cells were either lysed for the analysis of total radioactivity (liquid scintillation counter) or LC-MS/MS methods. For measuring relative fluorescence (FLUOstar Galaxy, Cary, NC, USA), cells were not lysed.

OAT3 = target: T2, OAT3 (Homo sapiens, UniProt Q8TCC7); conditions: for Inhibition (in words): concentrations up to 1000 μM; for IC50: read-out: as an Inhibitor, IC50
T2 construct: host or cells: MDCK
T2 sequence (Q8TCC7 1-542): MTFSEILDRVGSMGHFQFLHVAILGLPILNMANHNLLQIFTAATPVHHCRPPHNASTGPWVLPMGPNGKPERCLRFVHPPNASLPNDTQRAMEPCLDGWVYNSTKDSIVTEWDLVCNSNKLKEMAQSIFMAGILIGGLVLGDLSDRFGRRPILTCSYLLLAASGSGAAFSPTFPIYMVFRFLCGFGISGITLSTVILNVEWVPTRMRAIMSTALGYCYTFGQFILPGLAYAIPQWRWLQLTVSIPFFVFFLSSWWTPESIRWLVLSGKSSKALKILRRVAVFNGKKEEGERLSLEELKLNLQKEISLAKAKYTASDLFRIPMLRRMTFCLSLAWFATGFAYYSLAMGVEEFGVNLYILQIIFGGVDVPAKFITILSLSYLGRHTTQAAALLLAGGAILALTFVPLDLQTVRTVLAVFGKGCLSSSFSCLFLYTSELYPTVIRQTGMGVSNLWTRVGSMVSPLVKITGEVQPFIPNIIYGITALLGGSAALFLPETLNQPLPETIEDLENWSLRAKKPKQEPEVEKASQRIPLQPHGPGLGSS
Description: as §1

OATP1B3 = target: T3, OATP1B3 (Homo sapiens, UniProt Q9NPD5)
T3 construct: host or cells: MDCK
T3 sequence (Q9NPD5 1-702): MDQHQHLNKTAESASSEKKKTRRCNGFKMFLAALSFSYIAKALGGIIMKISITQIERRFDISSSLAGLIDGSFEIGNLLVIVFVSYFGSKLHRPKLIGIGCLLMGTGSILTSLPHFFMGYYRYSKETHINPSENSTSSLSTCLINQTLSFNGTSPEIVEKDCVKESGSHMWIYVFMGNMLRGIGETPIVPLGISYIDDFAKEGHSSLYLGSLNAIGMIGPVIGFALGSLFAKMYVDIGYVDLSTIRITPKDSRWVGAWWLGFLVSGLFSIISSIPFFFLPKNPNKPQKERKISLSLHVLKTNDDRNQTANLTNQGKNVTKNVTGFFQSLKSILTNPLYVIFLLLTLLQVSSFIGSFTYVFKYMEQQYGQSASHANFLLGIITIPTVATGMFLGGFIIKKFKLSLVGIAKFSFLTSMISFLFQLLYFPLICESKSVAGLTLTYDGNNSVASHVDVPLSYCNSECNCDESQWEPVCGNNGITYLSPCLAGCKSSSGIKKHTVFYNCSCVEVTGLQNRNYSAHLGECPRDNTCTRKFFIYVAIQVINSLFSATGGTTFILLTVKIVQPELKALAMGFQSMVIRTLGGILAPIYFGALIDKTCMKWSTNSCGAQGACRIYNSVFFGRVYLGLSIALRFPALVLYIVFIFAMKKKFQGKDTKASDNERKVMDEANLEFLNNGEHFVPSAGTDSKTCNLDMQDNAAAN
Description: as §1

OCT2 = target: T4, OCT2 (Homo sapiens, UniProt O15244)
T4 construct: host or cells: MDCK
T4 sequence (O15244 1-555): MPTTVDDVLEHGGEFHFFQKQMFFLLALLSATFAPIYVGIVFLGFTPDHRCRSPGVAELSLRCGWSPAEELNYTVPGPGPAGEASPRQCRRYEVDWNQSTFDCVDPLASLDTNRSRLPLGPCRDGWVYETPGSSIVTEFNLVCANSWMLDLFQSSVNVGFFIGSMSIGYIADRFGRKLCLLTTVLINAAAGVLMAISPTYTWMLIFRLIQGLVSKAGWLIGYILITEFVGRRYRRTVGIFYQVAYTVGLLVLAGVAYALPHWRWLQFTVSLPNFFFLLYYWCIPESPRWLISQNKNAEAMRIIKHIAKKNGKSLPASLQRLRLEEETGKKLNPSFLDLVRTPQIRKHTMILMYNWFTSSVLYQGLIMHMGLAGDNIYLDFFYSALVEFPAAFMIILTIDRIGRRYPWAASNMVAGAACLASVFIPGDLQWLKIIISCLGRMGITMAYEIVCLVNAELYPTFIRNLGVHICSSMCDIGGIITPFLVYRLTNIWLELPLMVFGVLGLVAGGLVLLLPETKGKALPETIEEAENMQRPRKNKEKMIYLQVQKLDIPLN
Description: as §1

[1] = read-out: as an Inhibitor, IC50

Compound | IC50 (OAT1) [µM] | Inhibition (in words) (OAT3) | IC50 (OAT3) [µM] | inhibition at 500 µM (OATP1B3; human, HEK 293 or MDCK cells transfected with OATP1B3, at 500 µM) [%] | inhibition at 1000 µM (OCT2; human, probe metformin, metformin transport, at 1000 µM (maximum tested)) [%] | IC50 (OATP1B3; [1]) [µM] | IC50 (OCT2; [1]) [µM]
NC[C@H]1OB(O)c2c(OCCCO)cccc21 [EBO, Epetraborole] | > 1000 | did not inhibit | > 1000 | 21 | 20 |  | 
NC[C@H]1OB(O)c2c(OCCC(=O)O)cccc21 [M3] | > 250 | did not inhibit | > 1000 |  |  | > 250 | > 250

Source: paper PMC10818931, “In Vitro Evaluation of Drug–Drug Interaction Potential of Epetraborole, a Novel Bacterial Leucyl-tRNA Synthetase Inhibitor” (Pharmaceuticals, 2024)
